From patent US8735414B2 (priority 2009, dated 2014)

Tests used:
[1] = test system: bicistronic HCV replicon (replicon RNA, GenBank Accession No. AJ242654); assay: HCV Replicon Assay; type: cell-based; conditions: Hepatitis C virus, 72 h, read-out: Replicon IC50

SMILES	IC50 [1] [nM]	melting point [°C]
C[C@H](NS(=O)(=O)c1ccc(-c2c(Cl)c3cc(F)c(C4CC4)cc3n2-c2ncccn2)nc1)C(F)(F)F [compound 947, 6-[3-chloro-6-cyclopropyl-5-fluoro-1-(pyrimidin-2-yl)-1H-indol-2-yl]-N-[(2S)-1,1,1-trifluoropropan-2-yl]pyridine-3-sulfonamide]	< 500	248 to 250
Cc1cc2c(C#N)c(-c3ccc(S(=O)(=O)N[C@@H](C)C(F)(F)F)cn3)n(-c3ncc(F)cn3)c2cc1F [compound 949, 6-[3-cyano-6-fluoro-1-(5-fluoropyrimidin-2-yl)-5-methyl-1H-indol-2-yl]-N-[(2S)-1,1,1-trifluoropropan-2-yl]pyridine-3-sulfonamide]	< 500	226 to 231
CCc1cc2c(cc1F)c(C(N)=O)c(-c1ccc(NS(=O)(=O)C(C)(C)C)nc1)n2C1CCCCC1 [compound 1037, 2-{6-[(tert-butylsulfonyl)amino]pyridin-3-yl}-1-cyclohexyl-6-ethyl-5-fluoro-1H-indole-3-carboxamide]	< 500	297 to 299
CC(=O)N([C@H](C)C(F)(F)F)S(=O)(=O)c1ccc(-c2c(C#N)c3cc(F)c(C)cc3n2C2CCCC2)nc1 [compound 709, N-{[6-(3-cyano-1-cyclopentyl-5-fluoro-6-methyl-1H-indol-2-yl)pyridin-3-yl]sulfonyl}-N-[(2R)-1,1,1-trifluoropropan-2-yl]acetamide]	< 500	162 to 163
CCc1cc2c(cc1F)c(C#N)c(-c1ccc(S(=O)(=O)NC(C)(C)C)cn1)n2C1CCC1 [compound 764, N-tert-butyl-6-(3-cyano-1-cyclobutyl-6-ethyl-5-fluoro-1H-indol-2-yl)pyridine-3-sulfonamide]	< 500	186 to 188
CC(C)NS(=O)(=O)c1cnc(-c2c(C#N)c3ccc(C4CC4)cc3n2C2CCC2)nc1 [compound 71, 2-(3-cyano-1-cyclobutyl-6-cyclopropyl-1H-indol-2-yl)-N-(propan-2-yl)pyrimidine-5-sulfonamide]	< 500	192 to 193
COC(=O)c1c(-c2ccc(S(=O)(=O)N[C@@H](C)C(F)(F)F)cn2)n(C2CCCCC2)c2ccc(F)cc12 [compound 717, methyl 1-cyclohexyl-5-fluoro-2-(5-{[(2S)-1,1,1-trifluoropropan-2-yl]sulfamoyl}pyridin-2-yl)-1H-indole-3-carboxylate]	500 to 2000	232 to 240
Cc1ccc2c(c1)c(C#N)c(-c1ncc(S(=O)(=O)N[C@@H](C)C(F)(F)F)cn1)n2C(C)C [compound 566, 2-[3-cyano-5-methyl-1-(propan-2-yl)-1H-indol-2-yl]-N-[(2S)-1,1,1-trifluoropropan-2-yl]pyrimidine-5-sulfonamide]	500 to 2000	195 to 198
CCc1cc2c(cc1F)c(C(N)=O)c(-c1ccc(S(=O)(=O)N[C@@H](C)C(F)(F)F)cn1)n2-c1ccc(C(F)(F)F)cc1 [compound 1022, 6-ethyl-5-fluoro-1-[4-(trifluoromethyl)phenyl]-2-(5-{[(2S)-1,1,1-trifluoropropan-2-yl]sulfamoyl}pyridin-2-yl)-1H-indole-3-carboxamide]	< 500	253 to 259
Cc1cc2cc(-c3ccc(S(=O)(=O)N[C@@H](C)C(F)(F)F)cn3)n(C3CCC3)c2cc1OC(F)F [compound 646, 6-[1-cyclobutyl-6-(difluoromethoxy)-5-methyl-1H-indol-2-yl]-N-[(2S)-1,1,1-trifluoropropan-2-yl]pyridine-3-sulfonamide]	2000 to 5000	151 to 153
CC(C)n1c(-c2ccc(S(=O)(=O)N[C@@H](C)C(F)(F)F)cn2)c(C(N)=O)c2c(F)cc(OC(F)F)cc21 [compound 839, 6-(difluoromethoxy)-4-fluoro-1-(propan-2-yl)-2-(5-{[(2S)-1,1,1-trifluoropropan-2-yl]sulfamoyl}pyridin-2-yl)-1H-indole-3-carboxamide]	< 500	197 to 198
Cc1cc2c(cc1O)c(C#N)c(-c1ccc(S(=O)(=O)N[C@@H](C)C(F)(F)F)cn1)n2C1CCCC1 [compound 691, 6-(3-cyano-1-cyclopentyl-5-hydroxy-6-methyl-1H-indol-2-yl)-N-[(2S)-1,1,1-trifluoropropan-2-yl]pyridine-3-sulfonamide]	< 500	232 to 233
CC(C)(C)S(=O)(=O)Nc1ccc(-c2c(C#N)c3ccc(OC(F)F)cc3n2C2CCC2)cn1 [compound 295, N-{5-[3-cyano-1-cyclobutyl-6-(difluoromethoxy)-1H-indol-2-yl]pyridin-2-yl}-2-methylpropane-2-sulfonamide]	2000 to 5000	239 to 240
N#Cc1c(-c2ccc(S(=O)(=O)NC(CF)CF)cn2)n(-c2ccc(F)cc2)c2cc(OC(F)F)ccc12 [compound 228, 6-[3-cyano-6-(difluoromethoxy)-1-(4-fluorophenyl)-1H-indol-2-yl]-N-(1,3-difluoropropan-2-yl)pyridine-3-sulfonamide]	< 500	192 to 198
CCc1cc2c(cc1F)c(C#N)c(-c1ccc(S(=O)(=O)NC3(C)CC3)cn1)n2-c1ncccn1 [compound 860, 6-[3-cyano-6-ethyl-5-fluoro-1-(pyrimidin-2-yl)-1H-indol-2-yl]-N-(1-methylcyclopropyl)pyridine-3-sulfonamide]	< 500	169 to 179
CCc1cc2c(cc1F)c(C#N)c(-c1ncc(S(=O)(=O)NC(CF)CF)cn1)n2C1CCCC1 [compound 638, 2-(3-cyano-1-cyclopentyl-6-ethyl-5-fluoro-1H-indol-2-yl)-N-(1,3-difluoropropan-2-yl)pyrimidine-5-sulfonamide]	< 500	184 to 185
Cc1cc2c(cc1F)c(C#N)c(-c1ccc(S(=O)(=O)N[C@@H](C)C(F)(F)F)cn1)n2-c1ccc(S(N)(=O)=O)s1 [compound 1034, 6-[3-cyano-5-fluoro-6-methyl-1-(5-sulfamoylthiophen-2-yl)-1H-indol-2-yl]-N-[(2S)-1,1,1-trifluoropropan-2-yl]pyridine-3-sulfonamide]	500 to 2000	131.6 to 137.7
Cc1ccc2c(c1)c(C#N)c(-c1ccc(S(=O)(=O)NC(CF)CF)cn1)n2-c1ccccn1 [compound 504, 6-[3-cyano-5-methyl-1-(pyridin-2-yl)-1H-indol-2-yl]-N-(1,3-difluoropropan-2-yl)pyridine-3-sulfonamide]	< 500	177 to 179
Cc1cc2c(cc1F)c(C#N)c(-c1ccc(S(=O)(=O)N[C@@H](C)C(F)(F)F)cn1)n2-c1cscn1 [compound 960, 6-[3-cyano-5-fluoro-6-methyl-1-(1,3-thiazol-4-yl)-1H-indol-2-yl]-N-[(2S)-1,1,1-trifluoropropan-2-yl]pyridine-3-sulfonamide]	< 500	184 to 189
C[C@H](NS(=O)(=O)c1ccc(-c2c(C#N)c3cc(F)c(OC(F)F)cc3n2CC2CC2)nc1)C(F)(F)F [compound 787, 6-[3-cyano-1-(cyclopropylmethyl)-6-(difluoromethoxy)-5-fluoro-1H-indol-2-yl]-N-[(2S)-1,1,1-trifluoropropan-2-yl]pyridine-3-sulfonamide]	< 500	149 to 153
NC(=O)c1c(-c2ccc(S(=O)(=O)NC(CF)CF)cn2)n(C2CCC2)c2cc(OC(F)F)ccc12 [compound 581, 1-cyclobutyl-6-(difluoromethoxy)-2-{5-[(1,3-difluoropropan-2-yl)sulfamoyl]pyridin-2-yl}-1H-indole-3-carboxamide]	< 500	211 to 213
Cc1c(F)cc2c(C#N)c(-c3ccc(S(=O)(=O)NC(C)(C)C(F)(F)F)cn3)n(C3CCC3)c2c1F [compound 577, 6-(3-cyano-1-cyclobutyl-5,7-difluoro-6-methyl-1H-indol-2-yl)-N-(1,1,1-trifluoro-2-methylpropan-2-yl)pyridine-3-sulfonamide]	< 500	180 to 187
Cc1c(F)cc2c(C#N)c(-c3ccc(S(=O)(=O)NC4(C(F)(F)F)CC4)cn3)n(C3CCCC3)c2c1F [compound 654, 6-(3-cyano-1-cyclopentyl-5,7-difluoro-6-methyl-1H-indol-2-yl)-N-[1-(trifluoromethyl)cyclopropyl]pyridine-3-sulfonamide]	< 500	241 to 246
N#Cc1c(-c2ccc(S(=O)(=O)NC(CF)CF)cn2)n(C2CCCCC2)c2cc(OC(F)(F)F)ccc12 [compound 105, 6-[3-cyano-1-cyclohexyl-6-(trifluoromethoxy)-1H-indol-2-yl]-N-(1,3-difluoropropan-2-yl)pyridine-3-sulfonamide]	< 500	146 to 148
COc1cc2c(C#N)c(-c3ccc(S(=O)(=O)N[C@@H](C)C(F)(F)F)cn3)n(C3CCCC3)c2cc1C [compound 669, 6-(3-cyano-1-cyclopentyl-5-methoxy-6-methyl-1H-indol-2-yl)-N-[(2S)-1,1,1-trifluoropropan-2-yl]pyridine-3-sulfonamide]	< 500	211 to 211.5
CCc1cc2c(cc1F)c(C#N)c(-c1ccc(S(=O)(=O)NC(CF)CF)cn1)n2C1CCCC1 [compound 639, 6-(3-cyano-1-cyclopentyl-6-ethyl-5-fluoro-1H-indol-2-yl)-N-(1,3-difluoropropan-2-yl)pyridine-3-sulfonamide]	< 500	179.5 to 180
COc1ccc2c(c1)c(C#N)c(-c1ccc(S(=O)(=O)N[C@@H](C)C(F)(F)F)cn1)n2C1CCC1 [compound 453, 6-(3-cyano-1-cyclobutyl-5-methoxy-1H-indol-2-yl)-N-[(2S)-1,1,1-trifluoropropan-2-yl]pyridine-3-sulfonamide]	< 500	181 to 183
N#Cc1c(-c2ncc(S(=O)(=O)NC(CF)CF)cn2)n(C2CCC2)c2cc(OC(F)(F)F)ccc12 [compound 177, 2-[3-cyano-1-cyclobutyl-6-(trifluoromethoxy)-1H-indol-2-yl]-N-(1,3-difluoropropan-2-yl)pyrimidine-5-sulfonamide]	< 500	202 to 204
